Measured values from paper PMC12102759 (Protein Science : A Publication of the Protein Society, 2025).

What follows are sequences tested on G3BP1 NFT2. Details: library DMS-CoV; bait G3BP1 NFT2; prey N; peptide APRITFGGPSDSTGSN; listed as aa = residue placed at this position; column sums to 1.
Assay type: binding, human
With APRITFGGPSDSTGSN P2I (AIRITFGGPSDSTGSN) the “DMS PSSM value, P (position 2)” value was 0.

Same assay, conditions: library DMS-CoV; bait G3BP1 NFT2; prey N; peptide RNAPRITFGGPSDSTG; listed as aa = residue placed at this position; column sums to 1
In the case of RNAPRITFGGPSDSTG F8E (RNAPRITEGGPSDSTG), the “DMS PSSM value, F (position 8)” value is reported as 0.
“RNAPRITFGGPSDSTG D13M (RNAPRITFGGPSMSTG)” was tested, and the “DMS PSSM value, D (position 13)” value was 0.
RNAPRITFGGPSDSTG P4E (RNAERITFGGPSDSTG) was tested, and the “DMS PSSM value, P (position 4)” value was 0.9115.
In the case of RNAPRITFGGPSDSTG P4D (RNADRITFGGPSDSTG), the “DMS PSSM value, P (position 4)” value is reported as 0.
For RNAPRITFGGPSDSTG R5I (RNAPIITFGGPSDSTG), the “DMS PSSM value, R (position 5)” value was 0.009613.
RNAPRITFGGPSDSTG R5Q (RNAPQITFGGPSDSTG) was tested, and the “DMS PSSM value, R (position 5)” value was 0.0005824.
RNAPRITFGGPSDSTG F8N (RNAPRITNGGPSDSTG) was tested, and the “DMS PSSM value, F (position 8)” value was 0.
With “RNAPRITFGGPSDSTG G16R (RNAPRITFGGPSDSTR)” the “DMS PSSM value, G (position 16)” value was 0.
For RNAPRITFGGPSDSTG P4F (RNAFRITFGGPSDSTG), the “DMS PSSM value, P (position 4)” value was 0.
In the case of “RNAPRITFGGPSDSTG T15N (RNAPRITFGGPSDSNG)”, the “DMS PSSM value, T (position 15)” value is reported as 0.
In the case of “RNAPRITFGGPSDSTG P11E (RNAPRITFGGESDSTG)”, the “DMS PSSM value, P (position 11)” value is reported as 0.
RNAPRITFGGPSDSTG N2W (RWAPRITFGGPSDSTG) was tested, and the “DMS PSSM value, N (position 2)” value was 0.
For RNAPRITFGGPSDSTG F8G (RNAPRITGGGPSDSTG), the “DMS PSSM value, F (position 8)” value was 0.
With “RNAPRITFGGPSDSTG S14K (RNAPRITFGGPSDKTG)” the “DMS PSSM value, S (position 14)” value was 0.
For RNAPRITFGGPSDSTG G9R (RNAPRITFRGPSDSTG), the “DMS PSSM value, G (position 9)” value was 0.
In the case of “RNAPRITFGGPSDSTG D13K (RNAPRITFGGPSKSTG)”, the “DMS PSSM value, D (position 13)” value is reported as 0.
For RNAPRITFGGPSDSTG F8K (RNAPRITKGGPSDSTG), the “DMS PSSM value, F (position 8)” value was 0.
For “RNAPRITFGGPSDSTG P11T (RNAPRITFGGTSDSTG)”, the “DMS PSSM value, P (position 11)” value was 0.
RNAPRITFGGPSDSTG I6R (RNAPRRTFGGPSDSTG) was tested, and the “DMS PSSM value, I (position 6)” value was 0.
With “RNAPRITFGGPSDSTG S12F (RNAPRITFGGPFDSTG)” the “DMS PSSM value, S (position 12)” value was 0.
For RNAPRITFGGPSDSTG G9E (RNAPRITFEGPSDSTG), the “DMS PSSM value, G (position 9)” value was 0.
For RNAPRITFGGPSDSTG I6F (RNAPRFTFGGPSDSTG), the “DMS PSSM value, I (position 6)” value was 0.
For RNAPRITFGGPSDSTG T7P (RNAPRIPFGGPSDSTG), the “DMS PSSM value, T (position 7)” value was 0.
With RNAPRITFGGPSDSTG F8I (RNAPRITIGGPSDSTG) the “DMS PSSM value, F (position 8)” value was 0.
With RNAPRITFGGPSDSTG F8W (RNAPRITWGGPSDSTG) the “DMS PSSM value, F (position 8)” value was 0.
With “RNAPRITFGGPSDSTG S12M (RNAPRITFGGPMDSTG)” the “DMS PSSM value, S (position 12)” value was 0.
In the case of “RNAPRITFGGPSDSTG G10Y (RNAPRITFGYPSDSTG)”, the “DMS PSSM value, G (position 10)” value is reported as 0.
In the case of “RNAPRITFGGPSDSTG S12P (RNAPRITFGGPPDSTG)”, the “DMS PSSM value, S (position 12)” value is reported as 0.
In the case of RNAPRITFGGPSDSTG F8H (RNAPRITHGGPSDSTG), the “DMS PSSM value, F (position 8)” value is reported as 0.
In the case of “RNAPRITFGGPSDSTG D13V (RNAPRITFGGPSVSTG)”, the “DMS PSSM value, D (position 13)” value is reported as 0.
With “RNAPRITFGGPSDSTG T15H (RNAPRITFGGPSDSHG)” the “DMS PSSM value, T (position 15)” value was 0.
For “RNAPRITFGGPSDSTG S12N (RNAPRITFGGPNDSTG)”, the “DMS PSSM value, S (position 12)” value was 0.
In the case of “RNAPRITFGGPSDSTG G16L (RNAPRITFGGPSDSTL)”, the “DMS PSSM value, G (position 16)” value is reported as 0.
For RNAPRITFGGPSDSTG R5A (RNAPAITFGGPSDSTG), the “DMS PSSM value, R (position 5)” value was 0.0005421.
With RNAPRITFGGPSDSTG P4Y (RNAYRITFGGPSDSTG) the “DMS PSSM value, P (position 4)” value was 0.
With RNAPRITFGGPSDSTG G9I (RNAPRITFIGPSDSTG) the “DMS PSSM value, G (position 9)” value was 0.
For “RNAPRITFGGPSDSTG G10T (RNAPRITFGTPSDSTG)”, the “DMS PSSM value, G (position 10)” value was 0.
In the case of “RNAPRITFGGPSDSTG P11I (RNAPRITFGGISDSTG)”, the “DMS PSSM value, P (position 11)” value is reported as 0.
“RNAPRITFGGPSDSTG T15K (RNAPRITFGGPSDSKG)” was tested, and the “DMS PSSM value, T (position 15)” value was 0.
With RNAPRITFGGPSDSTG A3R (RNRPRITFGGPSDSTG) the “DMS PSSM value, A (position 3)” value was 0.
In the case of RNAPRITFGGPSDSTG P4R (RNARRITFGGPSDSTG), the “DMS PSSM value, P (position 4)” value is reported as 0.
In the case of “RNAPRITFGGPSDSTG S14I (RNAPRITFGGPSDITG)”, the “DMS PSSM value, S (position 14)” value is reported as 0.
“RNAPRITFGGPSDSTG P11M (RNAPRITFGGMSDSTG)” was tested, and the “DMS PSSM value, P (position 11)” value was 0.
In the case of “RNAPRITFGGPSDSTG G16M (RNAPRITFGGPSDSTM)”, the “DMS PSSM value, G (position 16)” value is reported as 0.
“RNAPRITFGGPSDSTG G16E (RNAPRITFGGPSDSTE)” was tested, and the “DMS PSSM value, G (position 16)” value was 0.
With “RNAPRITFGGPSDSTG T15L (RNAPRITFGGPSDSLG)” the “DMS PSSM value, T (position 15)” value was 0.
For RNAPRITFGGPSDSTG P4Q (RNAQRITFGGPSDSTG), the “DMS PSSM value, P (position 4)” value was 0.08846.
RNAPRITFGGPSDSTG G9F (RNAPRITFFGPSDSTG) was tested, and the “DMS PSSM value, G (position 9)” value was 0.
“RNAPRITFGGPSDSTG T15Q (RNAPRITFGGPSDSQG)” was tested, and the “DMS PSSM value, T (position 15)” value was 0.
In the case of RNAPRITFGGPSDSTG R5E (RNAPEITFGGPSDSTG), the “DMS PSSM value, R (position 5)” value is reported as 0.1354.
RNAPRITFGGPSDSTG I6P (RNAPRPTFGGPSDSTG) was tested, and the “DMS PSSM value, I (position 6)” value was 0.
